For one assay, the target named is human Sortilin (Homo sapiens (Human), UniProt Q99523). Nature of the assay: Creoptix (GCI) binding kinetics, human Sortilin. Conditions: screened at 1 μM. On the procedure: A protein, bound to a surface, is bathed in a solution containing potential ligands giving rise to binding kinetics to generate Kon and Koff rates, as well as a Kd.
All buffers described were filtered using a 0.2 μm filter (Product number: 10300461, Nalgene) and degassed for 15 minutes prior to use.
A flow cell temperature of 25 degrees Celsius was used throughout the experiment.
A 4PCH chip was conditioned across all flow cells using 0.2× concentration running buffer (running buffer composition: 1×HBS-N, pH 7.4, 3.4 mM EDTA, 1% DMSO) using pre-set conditioning wizard (WAVE control software) injecting: 0.1 M borate, 1 M NaCl (pH 9) followed by three start-up injections of 0.2× running buffer.
A buffer exchange was performed and 1× running buffer (1×HBS-N, pH 7.4, 3.4 mM EDTA, 1% DMSO) used during the immobilisation procedure:
An initial injection of EDC/NHS (mixed in 1:1 ratio) was performed across all 4-flow cells to activate the surface for amine coupling of ligands.
Recombinant Sortilin aliquots were thawed quickly by hand and centrifuged at 13,300 rpm for 10 minutes. A 10 μg/ml protein solution was then made in pH 5.0 acetate and injected once for 20 minutes over flow-cells 2, 3 and 4 for human, human (flow cells 2 & 3), and mouse Sortilin respectively followed by a 60 second dissociation period.
A final 7-minute passivation injection of 50 mM tris was used across all flow cells.
A flow rate of 10 μl/min was used for all conditioning and immobilisation cycles.
Compounds were screened at 1 μM using the in-built ‘intermediate binders’ settings: 100 ul/min, 45 s baseline, 25 s association, 300 s dissociation, with blanks every 5th sample and a DMSO correction (1.5% DMSO at the start and end of the experiment as well as every 20 cycles. An acquisition rate of 10 Hz was used throughout the experiment.
Compounds were screened at a final assay concentration of 1 μM and a final DMSO concentration was 1%. To achieve this, compounds were diluted in DMSO from 10 mM stocks to 100 μM (100×final assay concentration) then diluted 1:100 in running buffer which contained no DMSO to establish a final assay concentration of compound of 1 μM and a final DMSO concentration of 1% [DMSO].
Compounds and DMSO were mixed by plate shaking at 1000 rpm for 60 seconds using a Bioshake instrument.
A flow rate of 100 μl/min was used throughout the experiment.
Data was evaluated using the RAPID kinetic analysis tool in the GCI WAVE_control software with data fitted using a standard 1:1 kinetic BioModel.

The target in the next assay is h-Sortilin (Homo sapiens (Human), UniProt Q99523). Description: Neurotensin (NTS) scintillation proximity assay (SPA): displacement of [3H]-neurotensin binding. The following applies: 150 nM 6his-Sortilin, 5 nM [3H]-Neurotensin; average of at least 2 determinations. How it is done:
The exemplified compounds of the invention were tested in a Neurotensin (NTS) scintillation proximity assay (SPA). NTS, which is a 13 amino acid neuropeptide, is a sortilin ligand. The IC50 is a measure of the amount of the compound required to inhibit the binding of NTS to sortilin by 50%. […] Compound affinity was determined by measuring the displacement of [^3H]-neurotensin binding to h-Sortilin in SPA format. […] IC50 values were calculated by nonlinear regression using the sigmoid concentration-response (variable slope) using CDD Vault software. All values reported are average of at least 2 determinations.

The structures appear in SMILES notation.

Sequence of human Sortilin (Q99523 78-755): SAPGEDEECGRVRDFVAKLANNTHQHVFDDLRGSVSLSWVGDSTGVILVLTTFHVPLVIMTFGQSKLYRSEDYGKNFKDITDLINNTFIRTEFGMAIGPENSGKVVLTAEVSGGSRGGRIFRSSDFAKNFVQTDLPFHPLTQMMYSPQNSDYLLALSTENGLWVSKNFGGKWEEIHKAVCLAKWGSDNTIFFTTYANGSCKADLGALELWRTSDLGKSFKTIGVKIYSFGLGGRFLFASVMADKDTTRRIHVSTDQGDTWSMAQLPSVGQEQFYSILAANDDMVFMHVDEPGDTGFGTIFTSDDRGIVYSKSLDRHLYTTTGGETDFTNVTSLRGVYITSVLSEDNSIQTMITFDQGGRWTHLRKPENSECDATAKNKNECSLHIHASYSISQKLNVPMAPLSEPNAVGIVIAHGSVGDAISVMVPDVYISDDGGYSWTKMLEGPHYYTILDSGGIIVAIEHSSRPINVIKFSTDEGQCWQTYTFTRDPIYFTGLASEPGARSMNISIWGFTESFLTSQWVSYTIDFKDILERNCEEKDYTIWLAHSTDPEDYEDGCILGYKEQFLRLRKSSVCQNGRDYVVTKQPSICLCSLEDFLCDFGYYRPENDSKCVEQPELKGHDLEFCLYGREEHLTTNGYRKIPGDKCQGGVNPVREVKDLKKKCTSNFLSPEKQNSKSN
Sequence of h-Sortilin (Q99523 78-831): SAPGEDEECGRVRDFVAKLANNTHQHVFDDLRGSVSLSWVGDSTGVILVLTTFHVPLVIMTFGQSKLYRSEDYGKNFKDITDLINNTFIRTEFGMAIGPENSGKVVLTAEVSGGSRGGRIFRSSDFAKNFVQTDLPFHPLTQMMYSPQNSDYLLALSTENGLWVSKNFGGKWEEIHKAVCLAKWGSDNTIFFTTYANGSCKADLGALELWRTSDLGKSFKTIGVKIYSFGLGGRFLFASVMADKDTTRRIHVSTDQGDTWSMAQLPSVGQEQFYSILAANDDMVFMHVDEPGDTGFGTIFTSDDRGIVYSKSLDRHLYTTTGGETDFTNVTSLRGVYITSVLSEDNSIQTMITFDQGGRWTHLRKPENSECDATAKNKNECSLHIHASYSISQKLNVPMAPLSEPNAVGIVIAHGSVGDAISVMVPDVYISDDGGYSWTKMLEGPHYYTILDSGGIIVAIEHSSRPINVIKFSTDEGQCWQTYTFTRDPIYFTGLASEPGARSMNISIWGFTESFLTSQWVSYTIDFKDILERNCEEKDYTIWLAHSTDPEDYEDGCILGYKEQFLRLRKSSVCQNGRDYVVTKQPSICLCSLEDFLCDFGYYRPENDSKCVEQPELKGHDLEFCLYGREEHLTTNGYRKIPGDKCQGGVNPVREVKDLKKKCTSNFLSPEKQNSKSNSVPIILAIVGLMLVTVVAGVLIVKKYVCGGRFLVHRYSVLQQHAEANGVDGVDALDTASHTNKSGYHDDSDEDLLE

At human Sortilin (Free acid), `CC(C)(C)CC[C@H](NCc1ccc2c(c1)OCCO2)C(=O)O` [Example 41, (2S)-2-{[(2,3-dihydro-1,4-benzodioxin-6-yl)methyl]amino}-5,5-dimethylhexanoic acid] registered a Kd of 5960 nM. On h-Sortilin, this molecule returned an IC50 of 330 nM.

In the case of `CC(C)(C)CC[C@H](NCc1cccc2c1OCO2)C(=O)O` [Example 45, (2S)-2-{[(2H-1,3-benzodioxol-4-yl)methyl]amino}-5,5-dimethylhexanoic acid], the affinity at human Sortilin (Free acid), expressed as Kd, was 285 nM. Further, the 50% inhibitory concentration (IC50) at h-Sortilin was 1060 nM.

`CC(C)(C)CC[C@H](NCc1cncnc1)C(=O)O` [Example 55, (2S)-5,5-dimethyl-2-{[(pyrimidin-5-yl)methyl]amino}hexanoic acid] had a Kd on human Sortilin (Free acid) of 1980 nM. For the same molecule, the IC50 on h-Sortilin stood at 410 nM.

As for `COc1cc(C)cc(CN[C@@H](CCC(C)(C)C)C(=O)O)c1` [Example 69, (2S)-2-{[(3-methoxy-5-methylphenyl)methyl]amino}-5,5-dimethylhexanoic acid], on human Sortilin (Free acid), the Kd was 2760 nM. The molecule further showed a half-inhibitory concentration (IC50) at h-Sortilin of 1390 nM.

On human Sortilin (Free acid), `COc1cc(CN[C@@H](CCC(C)(C)C)C(=O)O)ccc1F` [Example 74, (2S)-2-{[(4-fluoro-3-methoxyphenyl)methyl]amino}-5,5-dimethylhexanoic acid] yielded a Kd of 3390 nM. In addition, the IC50 on h-Sortilin is 950 nM.

`COc1cccc(CN[C@@H](CCC(C)(C)C)C(=O)O)c1C` [Example 75, (2S)-2-{[(3-methoxy-2-methylphenyl)methyl]amino}-5,5-dimethylhexanoic acid] showed a Kd at human Sortilin (Free acid) of 443 nM. At h-Sortilin, this molecule showed an IC50 of 980 nM.

The molecule `COc1ccc([C@H](C)N[C@@H](CCC(C)(C)C)C(=O)O)cc1C` [Example 101] came in with a Kd on human Sortilin (Free acid) of 277 nM. Also, at h-Sortilin, the IC50 came to 280 nM.

For `COc1ccc([C@@H](C)N[C@@H](CCC(C)(C)C)C(=O)O)cc1C` [Example 102], binding at human Sortilin (Free acid) was put at a Kd of 407 nM. This molecule displayed an IC50 at h-Sortilin of 540 nM.

With `CC(C)(C)CC[C@H](NCc1cnc2cccnc2c1)C(=O)O` [Example 103, (2S)-5,5-dimethyl-2-{[(1,5-naphthyridin-3-yl)methyl]amino}hexanoic acid], the Kd at human Sortilin (Free acid) is 83.2 nM. At h-Sortilin, this molecule displayed an IC50 of 160 nM.

Molecule `COc1ccc([C@@H](C)N[C@@H](CCC(C)(C)C)C(=O)O)cc1OC` [Example 107, (2S)-2-{[(1R)-1-(3,4-dimethoxyphenyl)ethyl]amino}-5,5-dimethylhexanoic acid] yielded a Kd at human Sortilin (Free acid) of 443 nM. This molecule also registered an IC50 at h-Sortilin of 930 nM.

At human Sortilin (Free acid), `COc1ccc([C@H](N[C@@H](CCC(C)(C)C)C(=O)O)C(F)F)cc1OC` [Example 112, (2S)-2-{[(1S)-1-(3,4-dimethoxyphenyl)-2,2-difluoroethyl]amino}-5,5-dimethylhexanoic acid] came in with a Kd of 183 nM. Also, at h-Sortilin, the concentration for half-maximal inhibition (IC50) stood at 280 nM.

Turning to `COc1ccc([C@@H](N[C@@H](CCC(C)(C)C)C(=O)O)C(F)F)cc1OC` [Example 113, (2S)-2-{[(1R)-1-(3,4-dimethoxyphenyl)-2,2-difluoroethyl]amino}-5,5-dimethylhexanoic acid], binding on human Sortilin (Free acid) was put at a Kd of 625 nM. Besides, on h-Sortilin, the concentration for half-maximal inhibition (IC50) worked out at 320 nM.

For `COc1ccc([C@H](N[C@@H](CCC(C)(C)C)C(=O)O)C(F)(F)F)cc1OC` [Example 114, (2S)-2-{[(1S)-1-(3,4-dimethoxyphenyl)-2,2,2-trifluoroethyl]amino}-5,5-dimethylhexanoic acid], binding at human Sortilin (Free acid) was put at a Kd of 132 nM. The same molecule gave a concentration for half-maximal inhibition (IC50) on h-Sortilin of 220 nM.

The molecule `COc1ccc([C@@H](N[C@@H](CCC(C)(C)C)C(=O)O)C(F)(F)F)cc1OC` [Example 115, (2S)-2-{[(1R)-1-(3,4-dimethoxyphenyl)-2,2,2-trifluoroethyl]amino}-5,5-dimethylhexanoic acid] registered a Kd on human Sortilin (Free acid) of 351 nM. For the same molecule, the half-inhibitory concentration (IC50) on h-Sortilin was determined as 420 nM.

`CC(C)(C)CC[C@H](NCc1ccc(Cl)c(Cl)c1)C(=O)O` [Example 125, (2S)-2-{[(3,4-dichlorophenyl)methyl]amino}-5,5-dimethylhexanoic acid]: the Kd on human Sortilin (Ms salt) is 522 nM. The molecule also registered an IC50 at h-Sortilin of 550 nM.

These data come from patent publication US20250268854A1, “2-AMINO-5,5-DIMETHYLHEXANOIC ACID DERIVATIVES AS SORTILIN MODULATORS FOR USE IN THE TREATMENT OF DISEASE OF THE CENTRAL NERVOUS SYSTEM” (c/o Vesper Bio ApS, priority 2021, published 2025).
